Results published in patent US20100035984A1, “Use of an antibacterial compound which is derived from alliaceae, as a natural additive in animal feed” (DMC Research Center, S.L., priority 2006, published 2010).
“And” between values parts separate entries of the source, which are not always exact repeats. Equal entries are not always repeated. Marks after values point to notes of the source that are not given here.

Columns and labels:
Assay type in all cases: cell-based
[1] = system: microbiota of the ruminal inoculum (ruminal fluid of goats); assay: In vitro ruminal degradation of experimental diets (Example 3); settings: for DDM (degradability of dry matter), mean / DOM (degradability of organic matter), mean: 48 hours
Description: The Effect of Different Doses of the Compounds Object of Study on the Ruminal Degradation of Two Different Diets the Composition of which is in Table 1 is Studied The diets consist of alfalfa hay (standard maintenance diet for ruminant animals) or of a mixture of 50% alfalfa hay and a commercial concentrate (standard lactation diet for ruminant animals). In vitro incubation is performed using ruminal fluid of goats as inoculum.

bifidobacteria = assay: In vitro fermentation of pig feces, bifidobacteria count (Example 2); settings: 200 mg/L, 24 hours
Description: (§1) The mean values affected by different indexes indicate significant differences (p<0.05). The vertical axis of the graph determines the log 10(cfu/g feces) and the horizontal axis determines the compound. The described assays are carried out using complete bacterial inocula obtained from feces of piglets in post-weaning stage. Two of the compounds (referenced as PTS and as PTSO) are assayed in a lower dose range (50-400 mg/L).

[2] = system: ruminal fermentation (methane-producing microorganisms); assay: Production of gas by in vitro fermentation of the diets (Example 4); settings: for inhibitory effect on production of fermentation gas, dependence on time: 24 and 48 hours; for doses at which the inhibitory effect on production of fermentation gas is observed: diet D2
Description: The effect of different doses of the compounds object of study on the production of gas promoted by in vitro fermentation for 24 and 48 hours of the diets the composition of which is included in Table 1 is studied.

lactobacilli = assay: In vitro fermentation of pig feces, lactobacilli count (Example 2); settings: 200 mg/L, 24 hours
Description: as §1

[3] = system: total anaerobes, total aerobes, enterobacteria, coliform bacteria, bacteroides, clostridia, lactobacilli and bifidobacteria; assay: In vitro fermentation of pig feces inoculum, counts of all bacterial groups (Example 1); settings: 50 to 2000 mg/L in culture medium, 24 hours in vitro fermentation, inocula from piglet feces
Description: FIG. 1 is a graph relating to Example 1 (study of the porcine digestive microbial composition) showing the effect of different concentrations of the compound PTSO after 24 hours of in vitro fermentation on the total anaerobic bacteria, total aerobic bacteria, enterobacteria, coliform bacteria, bacteroides, clostridia, lactobacilli and bifidobacteria count present in pig feces. The vertical axis of the graph determines the log 10(cfu/g feces) and the horizontal axis determines the bacterial group.
The described assays are carried out using complete bacterial inocula obtained from feces of piglets in post-weaning stage.

[4] = Alfalfa hay + concentrate, 10 ppm
[5] = Alfalfa hay + concentrate, 25 ppm
[6] = Alfalfa hay + concentrate, 50 ppm
[7] = Alfalfa hay + concentrate, 300 ppm
[8] = Alfalfa hay + concentrate, 750 ppm
[9] = Alfalfa hay + concentrate, 1000 ppm
[10] = Alfalfa hay + concentrate, 2000 ppm
[11] = Table 4: diet D1, 48 hours, concentration 2000, replicates
[12] = diet D1, 50 to 750 ppm, 24 hours in vitro incubation
[13] = diet D1, 24 hours, 50 ppm, replicates
[14] = diet D1, 24 hours, 750 ppm, replicates
[15] = diet D1, 48 hours, 10 ppm, replicates
[16] = diet D1, 48 hours, 25 ppm, replicates
[17] = diet D1, 48 hours, concentration 50, replicates
[18] = diet D1, 48 hours, concentration 300, replicates
[19] = diet D1, 48 hours, concentration 750, replicates
[20] = diet D1, 48 hours, concentration 1000, replicates
[21] = diet D1, 48 hours, concentration 2000, replicates
[22] = diet D2, 48 hours, 10 ppm, replicates
[23] = diet D2, 48 hours, 25 ppm, replicates
[24] = diet D2, 48 hours, concentration 50, replicates
[25] = diet D2, 48 hours, concentration 300, replicates
[26] = diet D2, 48 hours, concentration 750, replicates
[27] = diet D2, 48 hours, concentration 1000, replicates
[28] = diet D2, 48 hours, concentration 2000, replicates

Substance: propyl propylthiosulfinate [PTS]
- DDM (degradability of dry matter), mean [1, 4]: 63.9^ab
- DOM (degradability of organic matter), mean [1, 4]: 63.9^ab
- DDM (degradability of dry matter), mean [1, 5]: 59.4^b
- DOM (degradability of organic matter), mean [1, 5]: 59.7^b
- DDM (degradability of dry matter), mean [1, 6]: 59.8^b
- DOM (degradability of organic matter), mean [1, 6]: 59.8^b
- DDM (degradability of dry matter), mean [1, 7]: 48.3^c
- DOM (degradability of organic matter), mean [1, 7]: 47.8^c
- DDM (degradability of dry matter), mean [1, 8]: 43.5^c
- DOM (degradability of organic matter), mean [1, 8]: 45.5^c
- DDM (degradability of dry matter), mean [1, 9]: 45.6^c
- DOM (degradability of organic matter), mean [1, 9]: 45.1^c
- DDM (degradability of dry matter), mean [1, 10]: 45.3^c
- DOM (degradability of organic matter), mean [1, 10]: 38.7^d
- DDM (degradability of dry matter), mean ([1]; Alfalfa hay, 10 ppm): 54.2^a
- DOM (degradability of organic matter), mean ([1]; Alfalfa hay, 10 ppm): 54.5^a
- DDM (degradability of dry matter), mean ([1]; Alfalfa hay, 25 ppm): 52.3^a
- DOM (degradability of organic matter), mean ([1]; Alfalfa hay, 25 ppm): 42.9^bc
- DDM (degradability of dry matter), mean ([1]; Alfalfa hay, 50 ppm): 46.6^b
- DOM (degradability of organic matter), mean ([1]; Alfalfa hay, 50 ppm): 46.7^b
- DDM (degradability of dry matter), mean ([1]; Alfalfa hay, 300 ppm): 40.6^c
- DOM (degradability of organic matter), mean ([1]; Alfalfa hay, 300 ppm): 41.0^c
- DDM (degradability of dry matter), mean ([1]; Alfalfa hay, 750 ppm): 39.6^c
- DOM (degradability of organic matter), mean ([1]; Alfalfa hay, 750 ppm): 39.2^c
- DDM (degradability of dry matter), mean ([1]; Alfalfa hay, 1000 ppm): 39.1^c
- DOM (degradability of organic matter), mean ([1]; Alfalfa hay, 1000 ppm): 38.8^c
- DDM (degradability of dry matter), mean ([1]; Alfalfa hay, 2000 ppm): 39.6^c
- DOM (degradability of organic matter), mean ([1]; Alfalfa hay, 2000 ppm): 40.0^c
- DDM [1, 11]: 40.2% and 38.9%
- effect on degradation of dry matter [1, 12]: reduction of the degradation of dry matter
- effect on degradation of organic matter [1, 12]: do not affect
- Mean DDM ([1]; diet D1, 24 hours, 50 ppm): 37.1%
- Mean DOM ([1]; diet D1, 24 hours, 50 ppm): 38.5%
- DDM (degradation of dry matter) [1, 13]: 37.7% (2×) and 37.9% and 34.1% and 35.6% and 39.3%
- DOM (degradation of organic matter) [1, 13]: 38.0% and 38.9%
- Mean DDM ([1]; diet D1, 24 hours, 300 ppm): 37.4%
- DDM (degradation of dry matter) ([1]; diet D1, 24 hours, 300 ppm, replicates): 38.5% and 40.4% and 37.6% and 36.0% and 35.7% and 36.2%
- Mean DDM ([1]; diet D1, 24 hours, 750 ppm): 39.5%
- Mean DOM ([1]; diet D1, 24 hours, 750 ppm): 38.1%
- DDM (degradation of dry matter) [1, 14]: 40.8% and 37.7% and 43.2% and 39.5% and 37.9% and 38.0%
- DOM (degradation of organic matter) [1, 14]: 39.4% and 36.8%
- DDM [1, 15]: 54.5% and 53.9%
- DOM [1, 15]: 54.8% and 54.2%
- DDM [1, 16]: 52.0% and 52.5%
- DOM [1, 16]: 43.0% and 42.9%
- DDM [1, 17]: 46.2% and 46.9%
- DOM [1, 17]: 47.5% and 45.9%
- DDM [1, 18]: 41.8% and 39.4%
- DOM [1, 18]: 42.5% and 39.5%
- DDM [1, 19]: 39.6% and 39.7%
- DOM [1, 19]: 38.6% and 39.7%
- DDM [1, 20]: 39.1%
- DOM [1, 20]: 38.6% and 38.9%
- DOM [1, 21]: 40.3% and 39.7%
- DDM [1, 22]: 64.0% and 63.9%
- DOM [1, 22]: 63.8% and 64.0%
- DDM [1, 23]: 57.4% and 61.4%
- DOM [1, 23]: 57.6% and 61.8%
- DDM [1, 24]: 60.9% and 58.7%
- DOM [1, 24]: 60.9% and 58.8%
- DDM [1, 25]: 49.3% and 47.2%
- DOM [1, 25]: 48.6% and 47.1%
- DDM [1, 26]: 44.8% and 42.2%
- DOM [1, 26]: 46.5% and 44.6%
- DDM [1, 27]: 46.1% and 45.1%
- DOM [1, 27]: 45.6% and 44.7%
- DDM [1, 28]: 45.7% and 44.9%
- DOM [1, 28]: 38.9% and 38.5%
- bifidobacteria logarithmic reduction in the population (bifidobacteria): approximately 50%
- inhibitory effect on production of fermentation gas, dependence on dose [2]: dose-dependent
- inhibitory effect on production of fermentation gas, dependence on time [2]: time-dependent
- doses at which the inhibitory effect on production of fermentation gas is observed [2]: 10 ppm
- lactobacilli logarithmic reduction in the population (lactobacilli): approximately 50%

Substance: propyl propylthiosulfonate [PTSO]
- DDM (degradability of dry matter), mean [1, 4]: 63.4^a
- DOM (degradability of organic matter), mean [1, 4]: 63.8^a
- DDM (degradability of dry matter), mean [1, 5]: 62.5^a
- DOM (degradability of organic matter), mean [1, 5]: 60.6^a
- DDM (degradability of dry matter), mean [1, 6]: 61.1^a
- DOM (degradability of organic matter), mean [1, 6]: 63.5^a
- DDM (degradability of dry matter), mean [1, 7]: 45.2^b
- DOM (degradability of organic matter), mean [1, 7]: 44.7^b
- DDM (degradability of dry matter), mean [1, 8]: 38.1^c
- DOM (degradability of organic matter), mean [1, 8]: 37.4^c
- DDM (degradability of dry matter), mean [1, 9]: 37.2^c
- DOM (degradability of organic matter), mean [1, 9]: 36.0^c
- DDM (degradability of dry matter), mean [1, 10]: 36.7^c
- DOM (degradability of organic matter), mean [1, 10]: 32.3^c
- DDM (degradability of dry matter), mean ([1]; Alfalfa hay, 10 ppm): 55.5^a
- DOM (degradability of organic matter), mean ([1]; Alfalfa hay, 10 ppm): 48.4^ab
- DDM (degradability of dry matter), mean ([1]; Alfalfa hay, 25 ppm): 54.5^a
- DOM (degradability of organic matter), mean ([1]; Alfalfa hay, 25 ppm): 53.2^ab
- DDM (degradability of dry matter), mean ([1]; Alfalfa hay, 50 ppm): 45.6^b
- DOM (degradability of organic matter), mean ([1]; Alfalfa hay, 50 ppm): 45.9^b
- DDM (degradability of dry matter), mean ([1]; Alfalfa hay, 300 ppm): 36.2^c
- DOM (degradability of organic matter), mean ([1]; Alfalfa hay, 300 ppm): 35.5^c
- DDM (degradability of dry matter), mean ([1]; Alfalfa hay, 750 ppm): 30.4^d
- DOM (degradability of organic matter), mean ([1]; Alfalfa hay, 750 ppm): 29.9^c
- DDM (degradability of dry matter), mean ([1]; Alfalfa hay, 1000 ppm): 34.5^c
- DOM (degradability of organic matter), mean ([1]; Alfalfa hay, 1000 ppm): 33.7^c
- DDM (degradability of dry matter), mean ([1]; Alfalfa hay, 2000 ppm): 30.3^d
- DOM (degradability of organic matter), mean ([1]; Alfalfa hay, 2000 ppm): 29.0^c
- Mean DDM ([1]; Table 3: diet D1, 48 hours, 2000 ppm): 31.6%
- DDM (degradation of dry matter) ([1]; Table 3: diet D1, 48 hours, 2000 ppm, replicates): 30.9% and 30.2% and 32.0% and 31.4% and 32.2% and 32.7%
- DDM [1, 11]: 31.9% and 28.7%
- effect on degradation of dry matter and organic matter ([1]; diet D1, 2000 ppm, 48 hours in vitro incubation): higher reduction
- DDM [1, 15]: 54.9% and 56.1%
- DOM [1, 15]: 45.0% and 51.8%
- DDM [1, 16]: 54.1% and 55.0%
- DOM [1, 16]: 52.9% and 53.6%
- DDM [1, 17]: 45.5% and 45.7%
- DOM [1, 17]: 46.0% and 45.7%
- DDM [1, 18]: 36.6% and 35.8%
- DOM [1, 18]: 36.2% and 34.9%
- DDM [1, 19]: 31.0% and 29.9%
- DOM [1, 19]: 30.2% and 29.6%
- DDM [1, 20]: 33.4% and 35.6%
- DOM [1, 20]: 32.6% and 34.7%
- DOM [1, 21]: 30.6% and 27.5%
- DDM [1, 22]: 63.1% and 63.7%
- DOM [1, 22]: 63.2% and 64.3%
- DDM [1, 23]: 62.4% and 62.7%
- DOM [1, 23]: 58.4% and 62.8%
- DDM [1, 24]: 61.1% and 63.9%
- DOM [1, 24]: 62.2% and 64.8%
- DDM [1, 25]: 44.4% and 46.0%
- DOM [1, 25]: 43.7% and 45.6%
- DDM [1, 26]: 39.9% and 36.3%
- DOM [1, 26]: 39.0% and 35.8%
- DDM [1, 27]: 35.9% and 38.4%
- DOM [1, 27]: 34.8% and 37.3%
- DDM [1, 28]: 37.1% and 36.3%
- DOM [1, 28]: 32.7% and 32.0%
- growth of the bacterial groups studied [3]: inhibited the growth of all the bacterial groups studied
- bifidobacteria logarithmic reduction in the population (bifidobacteria): approximately 50%
- inhibitory effect on production of fermentation gas, dependence on dose [2]: dose-dependent
- inhibitory effect on production of fermentation gas, dependence on time [2]: time-dependent
- doses at which the inhibitory effect on production of fermentation gas is observed [2]: 10 ppm
- lactobacilli logarithmic reduction in the population (lactobacilli): approximately 50%
